Experimental data taken from patent EP0180615B1, “NOVEL ATRIAL NATRIURETIC/VASODILATOR POLYPEPTIDES” (priority 1984, dated 1995).
Positions of bridges follow the written chain, without caps; N, C: chain ends. Residues, ends and D or L forms follow the SMILES beside them.

How the values were obtained:
[1] = tested on: cultured bovine aortic smooth muscle cells; experiment: cyclic GMP accumulation in cultured aortic smooth muscle cells; assay type: cell-based; details: dose-response, % of maximal cyclic GMP increase (Figure 11A)
Excerpt: (§1) Since the agonistic action of ANVP in vascular smooth muscle not only results from binding to specific receptors, but is also associated with increases in cyclic GMP, the effects of ANVPs and analogs on cyclic GMP accumulation were examined using the same cultured cells. […] In Figure 11A & B, the relative activities of ANVP and analogs on cyclic GMP accumulation in aortic smooth muscle and endothelial cells are shown. The data is plotted in a dose-response relationship (log dose vs % of maximal cyclic GMP increases).

[2] = tested on: cultured bovine aortic endothelial cells; experiment: cyclic GMP accumulation in cultured aortic endothelial cells; assay type: cell-based; details: dose-response, % of maximal cyclic GMP increase (Figure 11B)
Excerpt: as §1

[3] = tested on: binding sites on vascular smooth muscle cells; experiment: 125I-ANVP binding and displacement on cultured vascular wall cells; set-up: species or system bovine; details: unlabelled competitor; vascular smooth muscle cells (Table III)
Method: Therefore, cells of vascular wall origin, e.g. bovine aortic smooth muscle and endothelial cells, were used to determine binding of ANVP compounds to specific receptors and associated cyclic GMP increases were measured.
Binding assays were performed as follows: ANVPs were labelled with ^1251 according to the procedure of Schenk, et al., J. Biol. Chem., 259:14941-14951 (1984). This procedure utilizes glucose oxidase and lactoperoxidase mediated oxidations to transfer ^1251 to the tyrosine on the ANVP molecule. ^1251-ANVP was then added to 10 mm confluent cultures of vascular wall cells and incubated at 37 °C.
Thus, the displacement of ^1251-ANVP binding by ANVPs and analogs as a function of concentration is a reflection of their potency to bind to the vascular wall and alter the contractile state of the vessel.

isolated adrenal cells = experiment: angiotensin-stimulated aldosterone production by isolated adrenal cells; assay type: cell-based
Excerpt: (§2) Thus, ANVPs are able to block the effects of the renin-angiotensin system at several levels: (1) they antagonize the direct actions of angiotensin on its target organs (blood vessels and the adrenal); and (2) inhibit renin secretion, which leads to a reduced rate of angiotensin formation in the blood.

isolated rat kidney = experiment: isolated perfused rat kidney
Method: The activity of rANVP(126-149) was measured in the isolated rat kidney. Functioning isolated rat kidneys were perfused in a closed-circuit system, as described in Camargo, M.J.F. et al. Am.J.Physiol., 246:F447-F456 (1984). After control clearance periods, 0.1 to 1.0 µg of the compound was added to the perfusate. The effects on multiple parameters were noted. These peak values are expressed in Table I as the experimental data. It is clear that rANVP(126-149) caused urine flow rate, urinary sodium excretion, filtration fraction and glomerular filtration rate to increase.
Isolated rat kidneys were treated as described in Table I. Control periods for each compound are denoted by C and experimental periods following the addition of compounds are denoted by E. V-urine flow rate UNaV-urinary sodium excretion rate, GFR-glomerular filtration rate. Data represent the mean of 3-8 experiments.
Samples of the above expressed material were also tested for natriuretic and diuretic activity using the isolated perfused rat kidney model as described by Camargo, M. et al., Am. J. Physiol. 246:F447-F456-(1984). As shown in Table VIII material synthesized and secreted by yeast cultures containing YEp-a-NF-5 and purified as described above through the SP-Sephadex step increased urinary Na^+ excretion approximately 3-fold and urinary volume 2-fold as examined during repeated test periods of 10 minutes each. […] No significant increase occurred in urinary Na^+ excretion, urinary volume, glomerular filtration or renal resistance when the same experiment was performed on material synthesized and secreted by yeast cultures containing the reverse orientation control plasmid YEp-a-NF-7 and purified through SP-Sephadex@.

anesthetized dogs = experiment: renal and hemodynamic effects of constant infusion in anesthetized dogs; assay type: in vivo; details: 1 µg/kg bolus, followed by 0.1 µg/kg/min for 1 hour
Method: Renal and hemodynamic effects have also been measured in anesthetized dogs receiving a constant infusion of the compound rANVP(126-149) (1 µg/kg bolus, followed by 0.1 µg/kg/min for 1 hour). Immediate effects were noted on blood pressure, GFR and urine flow rate and electrolyte excretion which were sustained throughout the infusion. The "experimental" data presented for these parameters in Table IV are the average values obtained during the infusion. […] All these parameters returned to control (i.e. pre-infusion) levels during the recovery period (i.e. following termination of the infusion).
as §2

intact rat = experiment: natriuresis after bolus injection in the intact anesthetized rat; assay type: in vivo; details: Inactin anesthetized rats on constant saline infusion
Method: Synthetic ANVP compounds rANVP(126-149), rANVP(126-150) and hANVP(127-151) were also found to be natriuretic in the intact rat. These compounds were administered as a bolus injection to Inactin anesthetized rats (100 mg/kg, average weight 399 g) which were maintained on a constant infusion of normal saline at 2.2 ml/hr. […] Data are expressed as mean ± SE.

[4] = 0.1 to 1.0 µg added to the perfusate after control clearance periods, peak values
[5] = 0.1 to 1.0 µg added to the perfusate, perfused in the absence of vasoconstrictors

## CC[C@H](C)[C@@H]1NC(=O)[C@H](CCCNC(=N)N)NC(=O)[C@H](CC(=O)O)NC(=O)[C@H]([C@@H](C)CC)NC(=O)[C@H](CCCNC(=N)N)NC(=O)CNC(=O)[C@@H](C)NC(=O)[C@H](Cc2ccccc2)NC(=O)[C@@H](NC(=O)[C@H](CO)NC(=O)[C@H](CO)NC(=O)[C@@H](N)CCCNC(=N)N)CSSC[C@@H](C(=O)N[C@@H](CC(N)=O)C(=O)N[C@@H](CO)C(=O)N[C@@H](Cc2ccccc2)C(=O)N[C@@H](CCCNC(=N)N)C(=O)N[C@@H](Cc2ccc(O)cc2)C(=O)O)NC(=O)CNC(=O)[C@H](CC(C)C)NC(=O)CNC(=O)[C@H](CO)NC(=O)[C@H](CCC(N)=O)NC(=O)[C@H](C)NC(=O)CNC1=O [[D-Ala^131]rANVP(126-150)]
[1]
  rank order of potency, cyclic GMP accumulation: > rANVP(127-150) = other D amino acid substitutions
[2]
  rank order of potency, cyclic GMP accumulation: > rANVP(127-150) = other D amino acid substitutions

## CC[C@H](C)[C@@H]1NC(=O)[C@H](CCCNC(=N)N)NC(=O)[C@H](CC(=O)O)NC(=O)[C@H]([C@@H](C)CC)NC(=O)[C@H](CCCNC(=N)N)NC(=O)CNC(=O)CNC(=O)[C@H](Cc2ccccc2)NC(=O)[C@@H](NC(=O)[C@H](CO)NC(=O)[C@H](CO)NC(=O)[C@@H](N)CCCNC(=N)N)CSSC[C@@H](C(=O)N[C@@H](CC(N)=O)C(=O)N[C@@H](CO)C(=O)N[C@@H](Cc2ccccc2)C(=O)N[C@@H](CCCNC(=N)N)C(=O)N[C@@H](Cc2ccc(O)cc2)C(=O)O)NC(=O)CNC(=O)[C@H](CC(C)C)NC(=O)[C@@H](C)NC(=O)[C@H](CO)NC(=O)[C@H](CCC(N)=O)NC(=O)[C@H](C)NC(=O)CNC1=O [[D-Ala^142]rANVP(126-150), [D-Ala'^42]rANVP(126-150)]
[1]
  rank order of potency, cyclic GMP accumulation: > rANVP(127-150) = other D amino acid substitutions
[2]
  rank order of potency, cyclic GMP accumulation: > rANVP(127-150) = other D amino acid substitutions
[3]
  displacement of 125I-ANVP binding: most reactive

## CC[C@H](C)[C@@H]1NC(=O)[C@H](CCCNC(=N)N)NC(=O)[C@H](CC(=O)O)NC(=O)[C@H]([C@@H](C)CC)NC(=O)[C@H](CCCNC(=N)N)NC(=O)CNC(=O)CNC(=O)[C@H](Cc2ccccc2)NC(=O)[C@@H](NC(=O)[C@H](CO)NC(=O)[C@H](CO)NC(=O)[C@@H](N)CCCNC(=N)N)CSSC[C@@H](C(=O)N[C@@H](CC(N)=O)C(=O)N[C@@H](CO)C(=O)N[C@@H](Cc2ccccc2)C(=O)N[C@@H](CCCNC(=N)N)C(=O)O)NC(=O)CNC(=O)[C@H](CC(C)C)NC(=O)CNC(=O)[C@H](CO)NC(=O)[C@H](CCC(N)=O)NC(=O)[C@H](C)NC(=O)CNC1=O [rANVP(126-149), rANVP (126-149)] (H-RSSCFGGRIDRIGAQSGLGCNSFR-OH; disulfide 4-20)
[1]
  rank order of potency, cyclic GMP accumulation: > rANVP(127-150) = other D amino acid substitutions
[2]
  rank order of potency, cyclic GMP accumulation: > rANVP(127-150) = other D amino acid substitutions
Isolated adrenal cells
  ability of angiotensin to stimulate aldosterone production: inhibits
Isolated rat kidney; [4]
  urinary sodium excretion: increase
  urine flow rate: increase
Isolated rat kidney; [5]
  filtration fraction: increase
  glomerular filtration rate: increase
Anesthetized dogs
  GFR rose: 25-35%
  Mean arterial pressure (MAP) fell: 10-15%
  diuresis and natriuresis: sustained diuresis and natriuresis
  plasma aldosterone (PA): significant decreases
  plasma renin activity (PRA): significant decreases
Intact rat
  natriuretic in the intact rat: natriuretic

## angiotensin
[3]
  displacement of 125I-ANVP binding: not by a variety of hormones

## glucagon
[3]
  displacement of 125I-ANVP binding: not by a variety of hormones

## vasopressin
[3]
  displacement of 125I-ANVP binding: not by a variety of hormones
